Experimental data published in patent publication US9321768B2, “Indoles as respiratory syncytial virus antiviral agents” (JANSSEN SCIENCES IRELAND UC, priority 2010, dated 2016).
Where two headings read alike, the source gives them in different places.

Key:
[1] = system: rgRSV224 virus; assay: microbe, parasite or virus in culture; type: cell-based, respiratory syncytial virus (RSV); conditions: for EC50: read-out: WT activity EC50; for SI CC50/EC50: ratio of HeLa CC50 to rgRSV224 EC50
Description: (§1) Black 96-well clear-bottom microtiter plates (Corning, Amsterdam, The Netherlands) were filled in duplicate using a customized robot system with serial 4-fold dilutions of compound in a final volume of 50 μl culture medium [RPMI medium without phenol red, 10% FBS, 0.04% gentamycin (50 mg/ml) and 0.5% DMSO]. Then, 100 μl of a HeLa cell suspension (5×10^4 cells/ml) in culture medium was added to each well followed by the addition of 50 μl rgRSV224 (MOI=0.02) virus in culture medium using a multidrop dispenser (Thermo Scientific, Erembodegem, Belgium). rgRSV224 virus is an engineered virus that includes an additional GFP gene (Hallak et al, 2000) and was in-licensed from the NIH (Bethesda, Md., USA). Medium, virus- and mockinfected controls were included in each test. Cells were incubated at 37° C. in a 5% CO2 atmosphere. Three days post-virus exposure, viral replication was quantified by measuring GFP expression in the cells by a MSM laser microscope (Tibotec, Beerse, Belgium). The EC50 was defined as the 50% inhibitory concentration for GFP expression. In parallel, compounds were incubated for three days in a set of white 96-well microtitier plates (Corning) and the cytotoxicity of compounds in HeLa cells was determined by measuring the ATP content of the cells using the ATPlite kit (PerkinElmer, Zaventem, Belgium) according to the manufacturer's instructions. The CC50 was defined as the 50% concentration for cytotoxicity.

[2] = Cytotoxicity in HeLa cells, ATP content (ATPlite kit); type: cell-based; conditions: human
Description: as §1

[3] = human respiratory syncytial virus, HeLa, 72 h
[4] = rgRSV224 (MOI=0.02) in HeLa cells, GFP expression three days post-virus exposure
[5] = HeLa cells, three days incubation, ATP content, read-out: Toxicity CC50

| SMILES | EC50 [1, 3] | CC50 at 3 days [2] | SI CC50/EC50 [1] | EC50 [1, 4] | CC50 at 3 days [2, 5] |
| --- | --- | --- | --- | --- | --- |
| O=c1n(Cc2cc3cc(Cl)ccc3n2CCCCO)c2cnccc2n1C1CC1 [Compound 7, 3-((5-Chloro-1-(4-hydroxybutyl)-1H-indol-2-yl)methyl)-1-cyclopropyl-1H-imidazo[4,5-c]pyridin-2(3H)-one] | 2.24 nM | 47600 nM | – | – | – |
| COc1ccc2c(c1)n(Cc1cc3cc(F)ccc3n1CCCS(C)(=O)=O)c(=O)n2C1CC1 [Compound P41] | – | – | 886 | 63.4 nM | – |
| N#CCCCn1c(Cn2c(=O)n(C3CC3)c3ccccc32)cc2cc(Cl)ccc21 [Compound P35] | – | – | 5353 | 3.14 nM | – |
| O=c1n(Cc2cc3cc(Cl)ccc3n2CCCC(F)(F)F)c2cnccc2n1C1COC1 [Compound P67] | – | – | >85461 | 1.25 nM | – |
| CS(=O)(=O)CCCn1c(Cn2c(=O)n(C3CC3)c3ccc(F)cc32)cc2cc(Cl)ccc21 [Compound 8, 3-((5-Chloro-1-(3-(methylsulfonyl)propyl)-1H-indol-2-yl)methyl)-1-cyclopropyl-5-fluoro-1H-benzo[d]imidazol-2(3H)-one] | 3.79 nM | > 9840 nM | – | – | – |
| CC(C)CCn1c(Cn2c(=O)n(C3CC3)c3ccncc32)c(C(=O)NS(C)(=O)=O)c2ccccc21 [Compound 19, 2-((1-cyclopropyl-2-oxo-1H-imidazo[4,5-c]pyridin-3 (2H)-yl)methyl)-1-isopentyl-N-(methylsulfonyl)-1H-indole-3-carboxamide] | 3210 nM | – | – | – | > 9840 nM |
| NC(=O)c1c(Cn2c(=O)n(C3CC3)c3ccncc32)n(CCCCF)c2ccc(Cl)cc12 [Compound P54, 5-chloro-2-((1-cyclopropyl-2-oxo-1H-imidazo[4,5-c]pyridin-3(2H)-yl)methyl)-1-(4-fluorobutyl)-1H-indole-3-carboxamide] | 0.0528 nM | – | >603587 | – | – |
| O=c1n(Cc2cc3cc(Cl)ccc3n2CCCN2CCOCC2)c2cnccc2n1C1CC1 [Compound P58] | – | – | 7416 | 5.8 nM | – |
| CS(=O)(=O)CCCn1c(Cn2c(=O)n(C3CC3)c3ccccc32)cc2cc(Cl)ccc21 [Compound P40] | – | – | >29923 | 2.94 nM | – |
| O=c1n(Cc2c(I)c3ccc(Cl)cc3n2CCCCO)c2cnccc2n1C1CC1 [Compound 15, 3-((6-Chloro-1-(4-hydroxybutyl)-3-iodo-1H-indol-2-yl)methyl)-1-cyclopropyl-1H-imidazo[4,5-c]pyridin-2(3H)-one] | 76.7 nM | > 9840 nM | – | – | – |
| CS(=O)(=O)CCCn1c(Cn2c(=O)n(C3CC3)c3ccc(F)cc32)cc2cc(F)ccc21 [Compound P27] | – | – | 664 | 36 nM | – |
| O=c1n(Cc2cc3cc(Br)ccc3n2CCCCO)c2cnccc2n1C1CC1 [Compound 4, 3-((5-bromo-1-(4-hydroxybutyl)-1H-indol-2-yl)methyl)-1-cyclopropyl-1H-imidazo[4,5-c]pyridin-2(3H)-one] | 1.12 nM | – | – | – | 48700 nM |
| CC(C)(O)CCCn1c(Cn2c(=O)n(CC(F)(F)F)c3ccncc32)cc2cc(Cl)ccc21 [Compound P74] | – | – | 15708 | 3.16 nM | – |
| CS(=O)(=O)CCCn1c(Cn2c(=O)n(C3CC3)c3ccncc32)cc2ccccc21 [Compound P25] | – | – | >10945 | 9.14 nM | – |
| CC(C)CCn1c(Cn2c(=O)n(C3CC3)c3ccncc32)cc2ccccc21 [Compound 12, 1-cyclopropyl-3-((1-isopentyl-1H-indol-2-yl)methyl)-1H-imidazo[4,5-c]pyridin-2(3H)-one] | 361 nM | 65500 nM | – | – | – |
| O=c1n(Cc2cc3cc(Cl)ccc3n2CCCCF)c2cnccc2n1C1CC1 [Compound P30] | – | – | 24457 | 0.733 nM | – |
| NC(=O)c1c(Cn2c(=O)n(C3CC3)c3ccc(F)cc32)n(CCCC(F)(F)F)c2ccc(Cl)cc12 [Compound P65] | – | – | >45348 | 1.1 nM | – |
| O=C(NC1CC1)c1c(Cn2c(=O)n(C3CC3)c3ccncc32)n(CCCC(F)(F)F)c2ccc(Cl)cc12 [Compound P68] | – | – | 249 | 12.6 nM | – |
| CS(=O)(=O)CCCn1c(Cn2c(=O)n(C3COC3)c3ccncc32)cc2cc(F)ccc21 [Compound P22] | – | – | >4200 | 23.8 nM | – |
| O=c1n(Cc2cc3cc(Cl)ccc3n2CCCCF)c2cnccc2n1C1COC1 [Compound P66] | – | – | 21581 | 1.25 nM | – |
| CS(=O)(=O)CCCn1c(Cn2c(=O)n(C3CC3)c3ccncc32)cc2cc(Br)ccc21 [Compound 2, 3-((5-bromo-1-(3-(methylsulfonyl)propyl)-1H-indol-2-yl)methyl)-1-cyclopropyl-1H-imidazo[4,5-c]pyridine-2(3H)-one] | 0.288 nM | > 9840 nM | – | – | – |
| CC(C)(O)CCCn1c(Cn2c(=O)n(C3COC3)c3ccncc32)cc2cc(Cl)ccc21 [Compound P73] | – | – | 15070 | 3.16 nM | – |

| SMILES | EC50 [1, 3] | CC50 at 3 days [2] | SI CC50/EC50 [1] | EC50 [1, 4] | CC50 at 3 days [2, 5] |
| --- | --- | --- | --- | --- | --- |
| CC(C)CCn1c(Cn2c(=O)n(C3CC3)c3ccncc32)c(C(=O)O)c2ccccc21 [Compound 17, 2-((1-cyclopropyl-2-oxo-1H-imidazo[4,5-c]pyridin-3(2H)-yl)methyl)-1-isopentyl-1H-indole-3-carboxylic acid] | 159 nM | – | – | – | > 98400 nM |
| CNC(=O)c1c(Cn2c(=O)n(C3CC3)c3ccncc32)n(CCCC(F)(F)F)c2ccc(Cl)cc12 [Compound P64] | – | – | >3896 | 6.42 nM | – |
| O=c1n(Cc2cc3cc(Br)ccc3n2CCCC(F)(F)F)c2ccccc2n1C1CC1 [Compound P31] | – | – | 3446 | 12.1 nM | – |
| CS(=O)(=O)CCCn1c(Cn2c(=O)n(C3COC3)c3ccncc32)cc2cc(Br)ccc21 [Compound 5, 3-((5-Bromo-1-(3-(methylsulfonyl)propyl)-1H-indol-2-yl)methyl)-1-(oxetan-3-yl)-1H-imidazo[4,5-c]pyridin-2(3H)-one] | 1.56 nM | > 9840 nM | – | – | – |
| CS(=O)(=O)CCCn1c(Cn2c(=O)n(C3CC3)c3ccncc32)cc2cc(C(F)(F)F)ccc21 [Compound P23] | – | – | 6557 | 7.37 nM | – |
| CS(=O)(=O)CCCn1c(Cn2c(=O)n(CC(F)(F)F)c3ccc(F)cc32)cc2cc(Cl)ccc21 [Compound P50] | – | – | 5176 | 4.8 nM | – |
| CC(C)(O)CCCn1c(Cn2c(=O)n(C3CC3)c3ccncc32)cc2cc(Cl)ccc21 [Compound P72] | – | – | 24273 | 1.58 nM | – |
| O=c1n(Cc2cc3cc(F)ccc3n2CCCCF)c2cnccc2n1C1CC1 [Compound P29] | – | – | 2149 | 13.8 nM | – |
| CC(C)CCn1c(Cn2c(=O)n(C3CC3)c3ccncc32)c(C(N)=O)c2ccccc21 [Compound 14, 2-((1-cyclopropyl-2-oxo-1H-imidazo[4,5-c]pyridin-3(2H)-yl)methyl)-1-isopentyl-1H-indole-3-carboxamide] | 4.51 nM | – | – | – | > 24600 nM |
| O=c1n(Cc2cc3cc(Br)ccc3n2CCCC(F)(F)F)c2cnccc2n1C1CC1 [Compound P32] | – | – | 53514 | 0.34 nM | – |
| CS(=O)(=O)CCCn1c(Cn2c(=O)n(C3CC3)c3ccccc32)cc2ccccc21 [Compound P28] | – | – | 184 | 348 nM | – |
| CS(=O)(=O)CCCn1c(Cn2c(=O)n(CC(F)(F)F)c3ccncc32)cc2cc(Cl)ccc21 [Compound P55] | – | – | >258982 | < 0.157 nM | – |
| O=c1n(Cc2cc3ccc(Cl)cc3n2CCCCO)c2cnccc2n1C1CC1 [Compound 16, 3-((6-Chloro-1-(4-hydroxybutyl)-1H-indol-2-yl)methyl)-1-cyclopropyl-1H-imidazo[4,5-c]pyridin-2(3H)-one] | 124 nM | > 9840 nM | – | – | – |
| N#CCCCn1c(Cn2c(=O)n(C3CC3)c3ccncc32)cc2cc(Cl)ccc21 [Compound P33] | – | – | 190625 | 0.266 nM | – |
| CS(=O)(=O)CCCn1c(Cn2c(=O)n(C3CC3)c3ccncc32)cc2cc(F)ccc21 [Compound P20] | – | – | 15206 | 4.07 nM | – |
| CS(=O)(=O)CCCn1c(Cn2c(=O)n(C3CC3)c3ccccc32)cc2cc(Br)ccc21 [Compound P21] | – | – | 6322 | 3.88 nM | – |
| N#CCCCn1c(Cn2c(=O)n(CC(F)(F)F)c3ccncc32)cc2cc(Cl)ccc21 [Compound P62] | – | – | 81459 | 0.539 nM | – |
| O=c1n(Cc2cc3cc(F)ccc3n2CCCCF)c2ccccc2n1C1CC1 [Compound P34] | – | – | >398 | 251 nM | – |
| CS(=O)(=O)CCCn1c(Cn2c(=O)n(C3COC3)c3ccncc32)cc2ccccc21 [Compound P24] | – | – | >3065 | 32.6 nM | – |
| CS(=O)(=O)CCCn1c(Cn2c(=O)n(C3CC3)c3ccccc32)cc2cc(F)ccc21 [Compound P26] | – | – | 2270 | 22.6 nM | – |
| NC(=O)c1c(Cn2c(=O)n(C3CC3)c3ccc(F)cc32)n(CCCCF)c2ccc(Cl)cc12 [Compound P63] | – | – | >89869 | 1.11 nM | – |
